Paper PMC11298173 (Drug Design, Development and Therapy, 2024)

Key:
[1] = NEF-105 study: budesonide plasma pharmacokinetics; format: in vivo; settings: human, po
patients with IgAN = settings: TESTING trial, at 3 months, diminishing over time; cited from earlier work

Compound | half-life [1] [h] | Effect on proteinuria vs placebo (patients with IgAN)
CCCC1O[C@@H]2C[C@H]3[C@@H]4CCC5=CC(=O)C=C[C@]5(C)[C@H]4[C@@H](O)C[C@]3(C)[C@]2(C(=O)CO)O1 (some centres unmarked) [budesonide] | ~5 | 
C[C@H]1C[C@@H]2[C@H]([C@@H](O)C[C@@]3(C)[C@H]2CC[C@]3(O)C(=O)CO)[C@@]2(C)C=CC(=O)C=C12 [methylprednisolone] |  | substantial effect
